Here are results for 1 molecule from US20260138969A1 (Korea Research Institute of Chemical Technology, priority 2023, published 2026).

The subject of assay [1] is α-Syn transgenic Parkinson's disease mouse model. As to the kind of experiment: α-Syn transgenic Parkinson's disease mouse model: microglial reduction (Iba-1). It counts as in vivo. As to conditions: 9 months of age; Memantine 10 mg/kg (G3), G4 2 mg/kg, G5 10 mg/kg, G7 2 mg/kg PO QD. As to the method: (§1) The test drug was administered once daily (QD) via oral administration (PO) with a solution of 5 ml/kg for 5 months from 4 months to 9 months of age. Motor behavior tests (beam test) and neurological scores (modified Irwin test) were performed at 4 months (before administration), 7 months, and 9 months. After the final behavioral test, tissue samples were taken. Weight was measured on the same day once a week from 4 months of age until the end of the study.
At 9 months of age, the measurement period ended, the mice were anesthetized, and then the experiment was terminated by cardiac puncture according to IACUC guidelines. Mice were perfused transcardially with 0.9% saline for tissue staining, followed by 4% paraformaldehyde until the mice were fixed. The brains were isolated and immobilized by soaking in 4% paraformaldehyde at 4° C. for 24 hours, followed by 30% sucrose added to PBS containing 0.02% sodium azide and stored at 4° C. for 3 days. Brain samples embedded in OCT compounds were sectioned to a thickness of 20 μm using Leica CM1950 (Leica Microsystems, Germany). The sections were stored at 4° C. in a preservation solution until they were stained by antibodies. […]
To assess microgliosis of the cortex, Iba-1-stained brain tissue was imaged in experimental example 10.5 using an immunofluorescence microscope (Olympus, BZ21) in Olympus. Each marker was manually counted to quantify Iba1.

Assay [2] has the same test system. Description: α-Syn transgenic Parkinson's disease mouse model: step error (beam test). It counts as in vivo. As to conditions: at 7 and 9 months; Memantine 10 mg/kg, Example 3 2/10/50 mg/kg, Example 2 2 mg/kg PO QD; vs G2. As to the method:
as §1
The procedure described by Fleming et al. (J Neurosci, 24:9434-40, 2004) was adopted as the beam test (Challenging Beam Traversal). Exercise capacity was measured with a new beam test that was a modification of the existing beam walking test. The beam is made of Plexiglas and consists of four sections (each 25 cm and a total length of 1 m), each with a different width. The beam is designed to start at 3.5 cm wide and gradually narrow in increments of 0.5 cm×1 cm. A shelf 1 cm wide was placed 1.0 cm below the top surface of the beam.
The mouse was trained to cross the length of the beam, starting from the widest section and ending with the narrowest and most difficult section. The narrow end of the beam is designed to connect directly to the mouse's house cage. The mice were trained for two days before testing, and all training was carried out without a mesh grid. On the first day, two auxiliary exercises were performed, in which the mouse was placed on a beam and the home cage was placed close to the mouse. This induces it to move forward along the beam. […]
The error was counted if the limb (front or hind leg) passed through the grid during forward movement and was visible between the grid and the beam surface. […] Error was measured by scoring each limb slippage individually. For example, a mouse with three limbs slipping off the grid in one step was rated with an error score of 3 points, while a mouse with only one limb slipped off the grid in one step was evaluated with an error score of 1 in that step. […] The number of step errors and the time it took to cross were measured and averaged in all five experiments.

`CC12CC3CC(C)(C1)CC(N)(C3)C2` [Memantine, reference compound]: the “number of IBA-1 positive cells in the cerebral cortex” value in assay [1] was “significantly reduced”. The “number of step errors (beam test)” value in assay [2] is recorded as “significant reduction in the number of step errors compared to Group G2”.
